Results published in patent US5641480A, “Hair care compositions comprising heteroatom containing alkyl aldonamide compounds” (Lever Brothers Company, Division of Conopco, Inc., priority 1994, dated 1997).
Where two headings read alike, the source gives them in different places.

Assays:
[1] = Clarity of prototype shampoo compositions with sodium lauryl sulfate (Example 87); assay type: physicochemical; details: room temperature, 6 months
Method: (§1) The prototype shampoo composition is as follows:
(§2) The above formulations were prepared by admixing the above ingredients in listed order and heating the mixture to about 80° C. with rapid stirring. The mixture was then cooled to about 40° C., placed in a clear jar and stored at room temperature for 6 months.

[2] = Critical micelle concentration, Wilhelmy plate method (Example 90); assay type: physicochemical
Method: The critical micelle concentration (CMC) is defined as the concentration at which a surfactant forms micelles in aqueous solution. Micellization is the preferred interfacial phenomena, since certain surfactant benefits such as detergency (the solubilization of soils), foaming, wetting or emulsification depend on the formation of these aggregates in solution.
The CMC value of C8 /C10 oxypropyl D-gluconamide was determined by plotting surface tension as a function of log(concentration) and extrapolating linear points to obtain an intersection point. The concentration at this point was taken as the CMC. The technique used was the Wilhelmy plate method and the instrument used was a Lauda Auto-Tensiometer. While wishing not to be bound to theory, it is believed that surfactants with low CMC values form micelles more readily at lower concentrations than those with high CMC values.

[3] = Effectiveness in reducing surface tension (Example 93); assay type: physicochemical; details: 60 °C
Source text: As mentioned before, surface tension reduction depends on the replacement of water molecules at the interface by surfactant molecules, therefore the effectiveness of a surfactant in reducing interfacial surface tension should reflect the saturated concentration of surfactant at the interface relative to that in bulk liquid phase. During this process the surface tension of water steadily decreases as bulk phase surfactant concentration increases. This will continue until the concentration reaches the critical micelle concentration (CMC), above which the surface tension remains nearly unchanged and the interface is saturated with surfactant. The surface tension at the CMC is therefore very close to the minimum interfacial tension or maximum surface pressure that the system can achieve. The surface pressure at this point, IIcmc, is a suitable measure of the effectiveness of a surfactant in reducing surface tension and is given as:
.PI.cmc 20+2.3nRT(Γmax) log [CMC/C20 ]
n=1 which represents the number of ions whose surface concentration changes with the change in liquid phase suffactant concentration.
CMC/C20 =is the ratio of the critical micelle concentration to the bulk phase surfactant concentration necessary to reduce the surface tension of water by 20 dyn/cm.

zein = tested on: zein
Source text: The zein solubilization assay was developed to determine the biological effects of surfactants on the skin. The protein is normally in soluble in water, but can be brought into solution by interaction with surfactants. The extent of zein dissolved is related to the irritation potential (M. J. Schwinger, Kolloid-Z. Z. Poly., 233, 848, 1969). The greater the zein solubilization, the greater the irritation potential of that surfactant on the skin.
Thus, a 1% solution of surfactant (30 mls) was added to 1.5 g of zein and stirred at room temperature for 1 hour. Residual zein was collected and dried to constant weight. Differences between starting and residual weights were used to calculate % zein solubilized.

[4] = Surface tension at the water/air interface (Example 91); assay type: physicochemical; details: 60 °C
Method: An important characteristic feature that surfactants have is the tendency for them to absorb at the water/air interface in an oriented manner, thereby altering the interfacial free energy of that surface. The surface free energy per unit area or surface tension (γ), is a measure of this work and may be considered as the minimum amount of work required to bring sufficient surfactant molecules to the surface.
The surface tension (γ) value of C8 /C10 oxypropyl D-gluconamide was determined and is set forth below: […]

[5] = Viscosity of prototype shampoo compositions with sodium lauryl sulfate, Brookfield Digital Viscometer (Example 88); assay type: physicochemical; details: vs no thickener
Method: as §1, §2
It is well known that the viscosity of a liquid composition comprising of anionic surfactant can be modified by the addition of inorganic salts, such as sodium chloride. However, in the absence of an organic modifier, high levels of salt may be necessary to achieve the required viscosity which may lead to problems of storage at cold temperature or even salting out certain ingredients. In practice, however, the viscosity of a liquid composition is modified by the simultaneous addition of thickener and small amounts of inorganic salt (viscosity cobuilder). The combined effect is greater than either one alone. The viscosity of the above prototype shampoo composition comprising various amounts of heteroatom containing alkyl aldonamide compound is as follows: […]

[6] = Micellar shape and structure, packing parameter (Example 96); details: T=333.15° K.
Source text: A theory of miceIlar structure, based upon the geometry of various micelle shapes and the space occupied by the surfactant has been disclosed by J. N. Israelachvili, D. J. Mitchell and B. W. Ninham in the J. Chem. Soc. Faraday Trans. 2, 1525, 72, (1976) which is given as the packing parameter (p).
VT =V(CH3) +(nc -1)V(CH2) and represents the volume occupied by the hydrophobic groups in the miceliar core at a given temperature.
1c= 1.50+1.26 nc Å and represents the length of the hydrophobic group in the core.
am =area per molecule or the cross-sectional area occupied by the hydrophilic group at the interface.
nc =total number of carbons in the alkyl chain.

[7] = Ross-Miles foam height assay of aldonamides (Examples 81-84); assay type: physicochemical; details: 0.1% aldonamide, 40° C. (if not soluble, about 5°-10° C. above Krafft point), 0 ppm hardness
Method: In the Ross-Miles method, 200 mL of a suffactant solution contained in a pipette of specified dimensions with a 2.9 -mm-i.d. orifice is allowed to fall 90 cm onto 50 mL of the same solution contained in a cylindrical vessel maintained at a given temperature by means of a water jacket. The height of the foam produced in the cylindrical vessel is read immediately after all the solution has run out of the pipette and then again after a given amount of time.
Using this method, the foam production (initial foam height in mm) and foam stability (final foam height after 10 minutes in mm) were measured at 0.1% aldonamtde concentration, 40° C. and 0 ppm (parts per million) hardness.

[8] = Area per molecule at the water/air interface (Example 95); assay type: physicochemical; details: 60 °C
Source text: The area per molecule of a surfactant at the water/air interface provides information on the degree of packing and the orientation of the adsorbed surfactant molecule. While not wishing to be bound by theory, it is believed that surfactants that have small area per molecule values tend to pack more closely at the interface than those with large area per molecule values. From the surface excess concentration at surface saturation (Γmax), the area per molecule (am) of C8 /C10 oxypropyl D-gluconamide was determined and is given by:
am =1×10^16 /Nav Γmax

[9] = Viscosity of prototype shampoo compositions of Example 86, Brookfield Digital Viscometer; assay type: physicochemical; details: 4.0% thickener
Source text: The results are as follows:

[10] = Rosen, cited from earlier work
[11] = Rosen, cited from earlier work; remark: listed apart in the source
[12] = Efficiency in surface tension reduction, pC20 (Example 92); assay type: physicochemical; details: 60 °C, estimated by extrapolation
Source text: Since surface tension reduction depends on the replacement of water molecules at the interface by surfactant molecules, the efficiency of a surfactant in reducing interfacial tension should reflect the concentration of surfactant at the interface relative to that in bulk liquid phase. A suitable measure of efficiency with which a surfactant performs this function can be described as pC20. This is defined as the negative logarithm of the bulk phase surfactant concentration necessary to reduce the surface tension of water by 20 dyn/cm and is given as:
pC20 =-log [C(-Δγ=20) ]=-log [C20]
C(-Δγ=20) =C20 is the bulk phase surfactant concentration necessary to reduce the surface tension of water by 20 dyn/cm.
In general, pC20 values are usually close to the minimum concentration needed to saturate the interface with surfactant molecules.

[13] = Rosen, cited from earlier work; remark: listed apart in the source
[14] = Effectiveness of adsorption, surface excess concentration at surface saturation (Example 94); assay type: physicochemical; details: 60 °C, estimated by extrapolation
Source text: The surface excess concentration at surface saturation (Γmax) is defined as a measure of the effectiveness of surfactant adsorption at the water/air interface and represents the maximum value to which adsorption can be obtained. Effectiveness of adsorption is related to the interfacial area occupied by the surfactant molecule. The smaller the effective cross-sectional area of a surfactant at the interface, the greater its effectiveness of adsorption. The effectiveness of adsorption is an important factor in determining surfactant properties such as detergency, foaming, wetting or emulsification. While not wishing to be bound by theory, it is believed that surfactants that absorb effectively at the interface tend have tightly packed coherent interfacial films and often provide better surfactant benefits than those with loosely packed noncoherent films. The effectiveness of adsorption of C8 /C10 oxypropyl D-gluconamide was determined using the Gibbs equation given as: […]
ergs/cm^2 (which is equivalent to the slope of a plot of γ

[15] = Rosen, cited from earlier work; remark: listed apart in the source
[16] = Foam stability and enhancement of sodium dodecyl benzene sulfonate, Ross-Miles method (Example 85); assay type: physicochemical; details: 30 minutes, 10:90 mole %, 35° C., pH 10
Method: The triolein/calcium stearate mixture was dispersed to the above solutions using a high speed shear mixer at 60° C. and then cooled to 35° C. The triolein/calcium stearate mixture represents an extreme type of antifoam behavior found in sebum soil.
The foaming behavior of the above surfactants was determined by the Ross-Miles Foam Height Assay (Ross, J. and Miles, G. D. Am Soc. for Testing Material Method Dl173-63 Philadelphia, Pa. (1953); Oil & Soap (1958) 62:1260) and the cylinder shaking method.
In the Ross-Miles method, 200 mL of a surfactant solution contained in a pipette of specified dimensions with a 2.9-mm-i.d. orifice is allowed to fall 90 cm onto 50 mL of the same solution contained in a cylindrical vessel maintained at a given temperature by means of a water jacket. The height of the foam produced in the cylindrical vessel is read after 30 minutes has elapsed.
The foam stability and enhancement of the heteroatom containing alkyl aldonamides was further determined using a 10:90 mole percent solution of C8 /C10 oxypropyl D-gluconamide (C8 /C10 OPG): sodium dodecyl benzene sulfonate (C12 LAS) and compared to identical solutions of dodecyl D-gluconamide (C12 Gluc): sodium dodecyl benzene sulfonate in the presence and absence of the triolein/calcium stearate antifoam.

[17] = 3.0% thickener in […] sodium lauryl sulfate shampoo
[18] = 5.0% thickener in […] sodium lauryl sulfate shampoo

Row | Molecule | Appearance (Time) [1, 17] | Appearance (Time) [1, 18] | γ (surface tension) [4] [dyn/cm] | Γmax (surface excess concentration at surface saturation) ([10]; 25 °C) | Γmax (surface excess concentration at surface saturation) ([10]; 40 °C) | .PI.cmc (surface pressure) ([11]; 25 °C) [dyn/cm] | CMC/C20 ([11]; 25 °C) | .PI.cmc (surface pressure) ([11]; 40 °C) [dyn/cm] | CMC/C20 ([11]; 40 °C) | pC20 [12] | .PI.cmc (surface pressure) ([3]; estimated by extrapolation) [dyn/cm] | am (area per molecule) ([13]; 25 °C) [Å^2] | am (area per molecule) ([13]; 40 °C) [Å^2] | Γmax (surface excess concentration at surface saturation) [14] | pC20 ([15]; 25 °C) | pC20 ([15]; 40 °C) | am (area per molecule) ([8]; estimated by extrapolation) [Å^2] | other results
1 | CCCCCCCCCCCCNC(=O)[C@H](O)[C@@H](O)[C@H](O)[C@H](O)CO [C12 D-Gluconamide, dodecyl D-gluconamide] | Precipitate (2 days) | Precipitate (1 hour) |  |  |  |  |  |  |  |  |  |  |  |  |  |  |  | CMC ([2]; 60 °C): None; water solubility ([2]; 60 °C table entry / discussion): insoluble in water and can not form micelles
2 | C8 /C10 oxypropyl D-gluconamide | Clear | Clear | 29.2 |  |  |  |  |  |  |  |  |  |  |  |  |  |  | .PI.cmc (surface pressure) [3]: 38.5 dyn/cm; % Zein Solubilized (zein): 6%; Appearance (Time) ([1]; 4.0% thickener in […] sodium lauryl sulfate shampoo): Clear; Increase (viscosity) ([5]; 1.0% thickener): 13 ×; Increase (viscosity) ([5]; 2.0% thickener): 27 ×; Increase (viscosity) ([5]; 3.0% thickener): 80 ×; Increase (viscosity) ([5]; 4.0% thickener): 148 ×; Increase (viscosity) ([5]; 5.0% thickener): 860 ×; p (packing parameter) [6]: 0.503; Foam Height Initial [7]: 212 mm; Foam Height Final ([7]; after 10 minutes): 165 mm; am (area per molecule) [8]: 43.1 Å^2; increased the viscosity of that composition ([9]; Example 86 shampoo (2395/22)): 109 times; Viscosity ([9]; Example 86 shampoo, 22° C.): 2395 Centipoise
3 | CCCCCCCCCCCCOCCOCCOCCOCCOCCOCCOCCOCCO [Dodecylocta(oxyethylene) Ether] |  |  |  | 2.52 × 10^-10 mole/cm^2 | 2.46 × 10^-10 mole/cm^2 | 37.2 | 17.3 | 37.3 | 15.4 | 5.39 | 36.3 | 66.0 | 67.4 | 2.40 × 10^-10 mole/cm^2 | 5.20 | 5.22 | 69.0 | 
4 | CCCCCCCCCCCCOCCOCCOCCOCCOCCOCCOCCO [Dodecylhepta(oxyethylene) Ether] |  |  |  | 2.90 × 10^-10 mole/cm^2 | 2.77 × 10^-10 mole/cm^2 | 38.3 | 14.9 | 38.5 | 13.9 | 5.41 | 36.8 | 57.3 | 59.9 | 2.71 × 10^-10 mole/cm^2 | 5.26 | 5.28 | 61.0 | 
5 | O [Water] |  |  | 60.2 |  |  |  |  |  |  |  |  |  |  |  |  |  |  | 
6 | sodium dodecyl benzene sulfonate [C12 LAS] |  |  |  |  |  |  |  |  |  |  |  |  |  |  |  |  |  | Foam Height, No Antifoam [16]: 131 mm; Foam Height, With Antifoam ([16]; triolein/calcium stearate 1 g/L): 61 mm
